Results from PubChem BioAssay (NCI).
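Tested at 5 concentrations; 48 h exposure; 96-well plates; endpoints linearly interpolated, else capped at highest concentration. GI50 is the concentration that inhibits growth by half. At the TGI there is no net growth.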

How the values were obtained:
Assay in all cases: NCI anticancer screen, dose series, 48 h
[1] = system: 786-0 renal
[2] = system: A498 renal
[3] = system: A549 NSCLC
[4] = system: ACHN renal
[5] = system: BT-549 breast
[6] = system: CAKI-1 renal
[7] = system: CCRF-CEM leukemia
[8] = system: COLO 205 colon
[9] = system: DU-145 prostate
[10] = system: HCC-2998 colon
[11] = system: HCT-116 colon
[12] = system: HCT-15 colon
[13] = system: HL-60(TB) leukemia
[14] = system: HOP-62 NSCLC
[15] = system: HOP-92 NSCLC
[16] = system: HS 578T breast
[17] = system: HT29 colon
[18] = system: IGROV1 ovarian
[19] = system: K-562 leukemia
[20] = system: KM12 colon
[21] = system: LOX IMVI melanoma
[22] = system: M14 melanoma
[23] = system: MALME-3M melanoma
[24] = system: MCF7 breast
[25] = system: MDA-MB-231 breast
[26] = system: MDA-MB-435
[27] = system: MOLT-4 leukemia
[28] = system: NCI-H226 lung
[29] = system: NCI-H23 lung
[30] = system: NCI-H460 lung
[31] = system: NCI-H522 lung
[32] = system: NCI/ADR-RES ovarian
[33] = system: OVCAR-3 ovarian
[34] = system: OVCAR-4 ovarian
[35] = system: OVCAR-5 ovarian
[36] = system: OVCAR-8 ovarian
[37] = system: PC-3 prostate
[38] = system: RPMI-8226 leukemia
[39] = system: RXF 393 renal
[40] = system: SF-268 CNS
[41] = system: SF-295 CNS
[42] = system: SF-539 CNS
[43] = system: SK-MEL-2 melanoma
[44] = system: SK-MEL-28 melanoma
[45] = system: SK-MEL-5 melanoma
[46] = system: SK-OV-3 ovarian
[47] = system: SN12C renal
[48] = system: SNB-19 CNS
[49] = system: SNB-75 CNS
[50] = system: SR leukemia
[51] = system: SW-620 colon
[52] = system: T-47D breast
[53] = system: TK-10 renal
[54] = system: U251 CNS
[55] = system: UACC-257 melanoma
[56] = system: UACC-62 melanoma
[57] = system: UO-31 renal

`Cc1cc(N(CCCl)CCCl)ccc1C=Nc1ccc(-c2csc(Cc3ccccc3)n2)cc1` showed a GI50 [1] of 5.86 µM, a TGI [1] of 49.1 µM and a GI50 [2] of 0.144 µM. For the same molecule, the TGI [2] was 1.13 µM, the GI50 [3] was 5.41 µM and the TGI [3] was > 62.4 µM. For the same molecule, the GI50 [4] was 5.35 µM, the TGI [4] was > 91.3 µM and the GI50 [5] was 13.4 µM. For the same molecule, the TGI [5] was 42.4 µM, the GI50 [6] was 2.18 µM and the TGI [6] was 30.5 µM. For the same molecule, the GI50 [7] was 3.01 µM, the TGI [7] was > 86.3 µM and the GI50 [8] was 13.1 µM. It also gave a TGI [8] of 34.1 µM, a GI50 [9] of 7.98 µM and a TGI [9] of 62.3 µM. For the same molecule, the GI50 [10] was 14.4 µM, the TGI [10] was 33.3 µM and the GI50 [11] was 13.6 µM. The TGI [11] was 40.3 µM, the GI50 [12] was 15.2 µM and the TGI [12] was > 79.9 µM. For the same molecule, the GI50 [13] was 1.85 µM, the TGI [13] was > 46 µM and the GI50 [14] was 5.72 µM. The TGI [14] was > 83 µM, the GI50 [15] was 1.53 µM and the TGI [15] was 12.3 µM. For the same molecule, the GI50 [16] was 20.3 µM, the TGI [16] was 83.7 µM and the GI50 [17] was 17.3 µM. The TGI [17] was 47.2 µM, the GI50 [18] was 24.2 µM and the TGI [18] was > 100 µM. For the same molecule, the GI50 [19] was 9.88 µM, the TGI [19] was > 100 µM and the GI50 [20] was 15.8 µM. It also gave a TGI [20] of 55.6 µM, a GI50 [21] of 7.95 µM and a TGI [21] of 20.8 µM. The GI50 [22] was 15.7 µM, the TGI [22] was 58.6 µM and the GI50 [23] was 16.4 µM. For the same molecule, the TGI [23] was 33.2 µM, the GI50 [24] was 4.66 µM and the TGI [24] was 43.3 µM. The GI50 [25] was 12.3 µM, the TGI [25] was 49.5 µM and the GI50 [26] was 12.4 µM. It also gave a TGI [26] of 39.9 µM, a GI50 [27] of 2.22 µM and a TGI [27] of 62 µM. It also gave a GI50 [28] of 0.596 µM, a TGI [28] of 21.3 µM and a GI50 [29] of 8.96 µM. It also gave a TGI [29] of 44.1 µM, a GI50 [30] of 0.475 µM and a TGI [30] of 23.6 µM. The GI50 [31] was 11.7 µM, the TGI [31] was 27 µM and the GI50 [32] was 5.18 µM. The TGI [32] was 34 µM, the GI50 [33] was 9.17 µM and the TGI [33] was 27 µM. For the same molecule, the GI50 [34] was 8.01 µM, the TGI [34] was > 100 µM and the GI50 [35] was 8.91 µM. For the same molecule, the TGI [35] was > 67.1 µM, the GI50 [36] was 10.2 µM and the TGI [36] was 46.2 µM. For the same molecule, the GI50 [37] was 5.66 µM, the TGI [37] was 44.2 µM and the GI50 [38] was 8.26 µM. It also gave a TGI [38] of 44 µM, a GI50 [39] of 14.6 µM and a TGI [39] of 71.3 µM. The GI50 [40] was 7.03 µM, the TGI [40] was > 85.4 µM and the GI50 [41] was 1.65 µM. For the same molecule, the TGI [41] was 50.6 µM, the GI50 [42] was 5.41 µM and the TGI [42] was 29.4 µM. It also gave a GI50 [43] of 18.8 µM, a TGI [43] of 40.3 µM and a GI50 [44] of 17.9 µM. For the same molecule, the TGI [44] was 63.1 µM, the GI50 [45] was 7.68 µM and the TGI [45] was 21.2 µM. For the same molecule, the GI50 [46] was 11.8 µM, the TGI [46] was 50.1 µM and the GI50 [47] was 3.85 µM. For the same molecule, the TGI [47] was 62.8 µM, the GI50 [48] was 16.8 µM and the TGI [48] was > 100 µM. For the same molecule, the GI50 [49] was 3.03 µM, the TGI [49] was 33.5 µM and the GI50 [50] was 1.07 µM. The TGI [50] was 73.2 µM, the GI50 [51] was 18.1 µM and the TGI [51] was > 100 µM. The GI50 [52] was 2.82 µM, the TGI [52] was 49.2 µM and the GI50 [53] was 19.9 µM. It also gave a TGI [53] of 62.5 µM, a GI50 [54] of 7.82 µM and a TGI [54] of 37.6 µM. For the same molecule, the GI50 [55] was 3.36 µM, the TGI [55] was 29.3 µM and the GI50 [56] was 0.621 µM. The TGI [56] was 16 µM, the GI50 [57] was 2.61 µM and the TGI [57] was 26.8 µM.
